Values belong to the molecule of their own block, whether it stands above or below them. Calls of active or inactive are those of the source.
Experiments:
[1] = viability loss in HepG2 liver cells – cell-based, ATP luminescence, cherry-pick, set 6, cytotoxicity control, dose response (AID 1053125); format: functional
[2] = target: T1, Ubiquitin-conjugating enzyme E2 N (Homo sapiens, UniProt P61088); format: functional;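 further: Dose-response confirmation in a TR-FRET assay detecting UBC13-driven polyubiquitin chain formation, inhibition measured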
T1 sequence (P61088 whole entry): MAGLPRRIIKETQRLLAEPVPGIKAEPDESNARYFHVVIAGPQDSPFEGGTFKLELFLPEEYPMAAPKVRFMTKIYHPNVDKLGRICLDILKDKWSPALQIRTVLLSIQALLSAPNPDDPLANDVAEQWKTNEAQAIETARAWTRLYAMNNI

cells [3] = conditions: HEK293
cells [4] = conditions: A549
INS1 = test: INS-1E survival protection against cytokine death – cell-based, luminescence, retest, dose response (AID 449756); format: functional; conditions: Rattus norvegicus;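 further: cell death triggered by IL-1 beta plus TNF-alpha plus IFN-gamma mixture; protective hits raise ATP signal compared with cytokine alone wells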
[5] = target: T2, High affinity choline transporter 1 (Homo sapiens, UniProt Q9GZV3); test: human choline transporter potentiators, potency – cell-based, 10-point CRC, membrane potential dye, dose response (AID 602376); format: functional
T2 sequence (Q9GZV3 whole entry): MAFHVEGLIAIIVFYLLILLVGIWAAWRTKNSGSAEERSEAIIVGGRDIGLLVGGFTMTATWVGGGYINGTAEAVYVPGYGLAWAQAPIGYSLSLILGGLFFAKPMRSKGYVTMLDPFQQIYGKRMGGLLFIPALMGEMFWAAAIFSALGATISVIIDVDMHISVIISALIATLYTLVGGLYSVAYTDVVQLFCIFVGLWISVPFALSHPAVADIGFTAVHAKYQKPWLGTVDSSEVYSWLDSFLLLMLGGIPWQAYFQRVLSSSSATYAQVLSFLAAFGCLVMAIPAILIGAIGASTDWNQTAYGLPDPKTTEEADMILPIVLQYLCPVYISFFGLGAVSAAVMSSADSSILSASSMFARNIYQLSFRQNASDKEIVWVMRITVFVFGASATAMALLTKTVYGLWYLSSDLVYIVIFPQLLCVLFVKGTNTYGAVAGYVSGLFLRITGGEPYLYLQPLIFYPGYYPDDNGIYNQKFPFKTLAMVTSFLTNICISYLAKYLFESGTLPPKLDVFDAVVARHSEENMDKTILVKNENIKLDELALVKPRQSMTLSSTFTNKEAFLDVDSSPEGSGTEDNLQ

[6] = target: RNA-editing ligase 1, mitochondrial (Trypanosoma brucei brucei, UniProt P86926); test: inhibition of trypanosome RNA editing ligase – biochemical, fluorescence, Trypanosoma brucei, dose response (AID 1117295); format: functional
[7] = Luminescence Cell-Based Dose Retest to Confirm Inhibitors of Cancer Stem Cells. [Related pubchem assays (depositor defined):AID2717, AID2721]; format: functional; conditions: Homo sapiens
[8] = Mcl1-dependent cancer cell viability – HMC-1-8 cells, luminescence, dry powder, selectivity assay for A1 inhibitor project, dose response (AID 504415); format: functional, cell-based; conditions: Homo sapiens
[9] = target: ALK tyrosine kinase receptor (Homo sapiens, UniProt Q9UM73); format: functional;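 further: ALK tested as one member of a kinase panel screen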
[10] = target: Homeodomain-interacting protein kinase 2 (Homo sapiens, UniProt Q9H2X6); format: functional;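 further: measured within a kinome-wide kinase profiling panel, HIPK2 being one panel member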
[11] = target: Serine/threonine-protein kinase pim-1 (Homo sapiens, UniProt P11309); format: functional
[12] = target: Interleukin-1 receptor-associated kinase 4 (Homo sapiens, UniProt Q9NWZ3); format: functional
[13] = target: T3, Glycogen synthase kinase-3 beta (Homo sapiens, UniProt P49841); format: functional;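 on Ki: value comes from a broad kinome profiling panel, with GSK3B as the panel member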
[14] = target: cAMP-dependent protein kinase catalytic subunit alpha (Homo sapiens, UniProt P17612); format: functional
[15] = target: Cell division cycle 7-related protein kinase (Homo sapiens, UniProt O00311); format: functional;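 further: value obtained from a kinome-wide kinase panel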
[16] = target: T3, Glycogen synthase kinase-3 beta; test: Inhibition of Human GSK-3 beta Activity Measured in Biochemical System Using Microfluidics - 2063-05_Inhibitor_Dose_DryPowder_Activity_Set2. [Related pubchem assays (depositor defined):AID2709]
[17] = target: Glycogen synthase kinase-3 alpha (Homo sapiens, UniProt P49840); test: Inhibition of Human GSK-3 alpha Activity Measured in Biochemical System Using Microfluidics - 2063-06_Inhibitor_Dose_DryPowder_Activity_Set2. [Related pubchem assays (depositor defined):AID2709]
[18] = target: Cyclin-dependent kinase 5/CDK5 activator 1 (Homo sapiens, UniProt Q00535); test: human CDK5 activity blockade – biochemical, microfluidic mobility shift, dry powder, selectivity assay for GSK-3 alpha inhibitor project, dose response (AID 588430)
[19] = target: T4, Orexin/Hypocretin receptor type 1 (Homo sapiens, UniProt O43613); test: Homogeneous Time Resolved Fluorescence (HTRF)-based cell-based high throughput dose response assay for antagonists of the orexin 1 receptor (OX1R; HCRTR1). [Related pubchem assays (depositor defined):AID434989, AID435008, AID463079, AID485270, AID492963, AID492964, AID492965, AID493232, AID504717, AID504718]; format: functional
T4 sequence (O43613 whole entry): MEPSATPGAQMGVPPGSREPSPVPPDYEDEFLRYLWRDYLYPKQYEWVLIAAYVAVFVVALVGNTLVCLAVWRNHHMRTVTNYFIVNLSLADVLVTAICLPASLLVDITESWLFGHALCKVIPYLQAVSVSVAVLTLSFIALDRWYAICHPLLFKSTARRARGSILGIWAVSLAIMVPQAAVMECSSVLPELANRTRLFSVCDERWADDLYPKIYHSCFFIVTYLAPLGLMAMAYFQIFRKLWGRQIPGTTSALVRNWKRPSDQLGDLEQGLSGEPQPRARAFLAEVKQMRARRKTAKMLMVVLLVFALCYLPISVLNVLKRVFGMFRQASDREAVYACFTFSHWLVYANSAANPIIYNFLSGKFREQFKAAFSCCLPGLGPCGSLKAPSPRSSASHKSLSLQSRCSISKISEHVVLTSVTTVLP

[20] = (§1) Counterscreen for antagonists of the orexin 1 receptor (OX1R; HCRTR1): Fluorescence-based cell-based high throughput dose response assay to identify antagonists of the parental CHO cell line. [Related pubchem assays (depositor defined):AID434989, AID435008, AID463079, AID485270, AID492963, AID492964, AID492965, AID493232, AID504699, AID504701]; format: functional
CHO-K1 = test: as §1, with “Homogeneous time resolved fluorescence (HTRF)-based” for “Fluorescence-based”, “cell-based” for “cell-based high throughput”, “CHO-K1” for “CHO”; format: functional; conditions: Cricetulus griseus;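 further: potency for inhibition of ATP-stimulated IP1 production as antagonists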
Orexin receptor type 2 [21] = target: T5, Orexin receptor type 2 (Homo sapiens, UniProt O43614); test: Counterscreen assay for antagonists of the orexin 1 receptor (OX1R; HCRTR1): Fluorescence-based cell-based dose response assay for antagonists of the orexin 2 receptor (OX2R; HCRTR2), run by assay provider.; format: functional
Orexin receptor type 2 [22] = target: T5, Orexin receptor type 2; test: Counterscreen assay for antagonists of the orexin 1 receptor (OX1R; HCRTR1): Homogeneous Time Resolved Fluorescence (HTRF)-based cell-based dose response assay for antagonists of the orexin 2 receptor (OX2R; HCRTR2), run by assay provider.; format: functional
[23] = target: T4, Orexin/Hypocretin receptor type 1; test: Fluorescence-based cell-based high throughput dose response assay for antagonists of the orexin 1 receptor (OX1R; HCRTR1). [Related pubchem assays (depositor defined):AID434989, AID435008, AID463079, AID485270, AID492963, AID492964, AID492965, AID493232, AID504717, AID504718]; format: functional
[24] = target: T6, Apoptotic protease-activating factor 1 (Homo sapiens, UniProt O14727); test: SAR analysis of small molecule inhibitors of Apaf-1 in a Fluorescent assay.; format: functional; conditions: read-out: IC50_Mean
T6 sequence (O14727 whole entry): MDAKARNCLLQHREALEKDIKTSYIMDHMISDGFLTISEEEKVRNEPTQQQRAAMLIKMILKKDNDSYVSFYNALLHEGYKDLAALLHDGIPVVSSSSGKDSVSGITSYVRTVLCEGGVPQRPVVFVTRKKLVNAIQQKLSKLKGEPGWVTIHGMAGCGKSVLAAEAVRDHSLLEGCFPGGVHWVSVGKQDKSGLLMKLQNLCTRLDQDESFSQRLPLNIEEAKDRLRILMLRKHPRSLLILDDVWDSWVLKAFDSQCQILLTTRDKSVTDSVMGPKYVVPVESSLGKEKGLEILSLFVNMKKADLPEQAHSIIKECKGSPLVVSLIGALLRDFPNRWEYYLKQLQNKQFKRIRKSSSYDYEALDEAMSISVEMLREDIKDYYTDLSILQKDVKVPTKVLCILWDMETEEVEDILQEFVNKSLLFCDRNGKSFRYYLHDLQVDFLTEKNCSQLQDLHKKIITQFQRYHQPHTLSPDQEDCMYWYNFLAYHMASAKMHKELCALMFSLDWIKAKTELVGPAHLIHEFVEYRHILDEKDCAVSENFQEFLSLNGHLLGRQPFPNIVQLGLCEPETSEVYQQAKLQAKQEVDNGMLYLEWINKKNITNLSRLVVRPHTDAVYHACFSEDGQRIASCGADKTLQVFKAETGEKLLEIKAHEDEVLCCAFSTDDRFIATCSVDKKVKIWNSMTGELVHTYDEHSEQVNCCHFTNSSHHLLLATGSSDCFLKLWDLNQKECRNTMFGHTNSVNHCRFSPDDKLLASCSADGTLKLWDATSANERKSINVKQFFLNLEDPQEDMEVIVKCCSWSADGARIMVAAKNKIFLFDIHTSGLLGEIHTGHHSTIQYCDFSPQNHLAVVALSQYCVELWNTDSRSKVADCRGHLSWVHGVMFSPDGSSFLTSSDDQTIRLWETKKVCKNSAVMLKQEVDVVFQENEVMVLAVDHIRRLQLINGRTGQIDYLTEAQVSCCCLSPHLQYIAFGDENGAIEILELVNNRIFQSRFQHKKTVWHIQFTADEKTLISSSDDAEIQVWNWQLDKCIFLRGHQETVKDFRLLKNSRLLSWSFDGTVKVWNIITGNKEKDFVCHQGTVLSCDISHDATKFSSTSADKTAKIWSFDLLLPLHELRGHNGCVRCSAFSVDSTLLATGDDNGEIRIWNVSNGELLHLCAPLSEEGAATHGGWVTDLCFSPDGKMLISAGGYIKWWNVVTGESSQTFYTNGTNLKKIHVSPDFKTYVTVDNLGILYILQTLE

[25] = target: Testis-specific serine/threonine-protein kinase 2 (Homo sapiens, UniProt Q96PF2); format: functional;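 further: part of the Navigating the Kinome panel, target entry STK22B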
[26] = target: T7, Methionyl-tRNA synthetase, putative (Trypanosoma brucei brucei, UniProt Q38C91); format: functional, Trypanosoma brucei brucei strain 927/4 GUTat10.1
T7 sequence (Q38C91 whole entry): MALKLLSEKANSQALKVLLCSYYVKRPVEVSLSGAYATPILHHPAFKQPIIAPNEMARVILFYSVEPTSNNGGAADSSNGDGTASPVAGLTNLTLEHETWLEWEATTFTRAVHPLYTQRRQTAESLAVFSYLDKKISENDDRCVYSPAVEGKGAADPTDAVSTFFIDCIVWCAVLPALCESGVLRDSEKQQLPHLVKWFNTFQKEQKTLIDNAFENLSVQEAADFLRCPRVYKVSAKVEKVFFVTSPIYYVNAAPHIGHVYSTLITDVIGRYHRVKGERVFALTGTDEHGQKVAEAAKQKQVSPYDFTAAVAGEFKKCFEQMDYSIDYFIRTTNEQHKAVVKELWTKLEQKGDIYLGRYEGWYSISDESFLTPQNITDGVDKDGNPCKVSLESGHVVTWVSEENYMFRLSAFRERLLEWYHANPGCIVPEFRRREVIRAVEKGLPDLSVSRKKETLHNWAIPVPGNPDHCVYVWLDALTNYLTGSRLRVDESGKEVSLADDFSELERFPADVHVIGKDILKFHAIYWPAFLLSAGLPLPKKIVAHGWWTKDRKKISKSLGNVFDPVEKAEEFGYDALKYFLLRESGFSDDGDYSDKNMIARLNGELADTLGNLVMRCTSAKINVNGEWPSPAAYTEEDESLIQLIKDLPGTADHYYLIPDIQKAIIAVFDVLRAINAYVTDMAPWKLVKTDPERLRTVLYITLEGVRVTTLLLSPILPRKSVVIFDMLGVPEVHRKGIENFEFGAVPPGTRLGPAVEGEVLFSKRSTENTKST

[27] = target: Protein disulfide-isomerase (Homo sapiens, UniProt P07237); test: inhibition of PDI-driven insulin aggregation – biochemical, turbidity, absorbance, cherry-picked samples, dose response (AID 602350); format: functional
[28] = Counterscreen for inhibitors of Trypanosoma brucei methionyl tRNA synthetase (MetRS): Luminescence-based cell-based high throughput dose response assay to identify compounds that are cytotoxic to Jurkat human T lymphocyte cells.; format: functional
[29] = target: T7, Methionyl-tRNA synthetase, putative; format: functional, Trypanosoma brucei brucei strain 927/4 GUTat10.1; remark: listed apart in the source

T3 sequence (P49841 whole entry): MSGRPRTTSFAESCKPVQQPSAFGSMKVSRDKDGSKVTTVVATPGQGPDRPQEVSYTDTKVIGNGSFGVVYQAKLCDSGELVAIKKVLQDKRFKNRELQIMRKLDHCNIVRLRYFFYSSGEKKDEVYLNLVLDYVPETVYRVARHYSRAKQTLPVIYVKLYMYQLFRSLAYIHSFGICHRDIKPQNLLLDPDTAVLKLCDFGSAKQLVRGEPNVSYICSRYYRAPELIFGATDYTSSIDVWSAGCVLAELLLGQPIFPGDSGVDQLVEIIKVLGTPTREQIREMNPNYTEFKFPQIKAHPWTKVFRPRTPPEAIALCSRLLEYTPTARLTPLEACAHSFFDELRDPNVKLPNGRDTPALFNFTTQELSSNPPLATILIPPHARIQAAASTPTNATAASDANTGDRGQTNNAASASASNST
T5 sequence (O43614 whole entry): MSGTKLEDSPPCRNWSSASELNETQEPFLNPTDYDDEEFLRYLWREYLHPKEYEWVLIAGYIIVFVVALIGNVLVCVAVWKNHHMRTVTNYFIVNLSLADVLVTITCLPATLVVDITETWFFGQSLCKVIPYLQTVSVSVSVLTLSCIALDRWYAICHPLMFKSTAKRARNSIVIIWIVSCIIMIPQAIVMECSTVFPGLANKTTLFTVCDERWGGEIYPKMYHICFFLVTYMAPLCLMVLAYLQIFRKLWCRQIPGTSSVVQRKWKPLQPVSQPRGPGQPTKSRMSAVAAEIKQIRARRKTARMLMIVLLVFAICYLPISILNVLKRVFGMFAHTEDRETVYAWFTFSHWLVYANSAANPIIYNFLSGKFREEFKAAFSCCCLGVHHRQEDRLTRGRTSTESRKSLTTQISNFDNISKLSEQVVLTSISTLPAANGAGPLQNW
Chain of Interleukin-1 receptor-associated kinase 4 (Q9NWZ3 whole entry): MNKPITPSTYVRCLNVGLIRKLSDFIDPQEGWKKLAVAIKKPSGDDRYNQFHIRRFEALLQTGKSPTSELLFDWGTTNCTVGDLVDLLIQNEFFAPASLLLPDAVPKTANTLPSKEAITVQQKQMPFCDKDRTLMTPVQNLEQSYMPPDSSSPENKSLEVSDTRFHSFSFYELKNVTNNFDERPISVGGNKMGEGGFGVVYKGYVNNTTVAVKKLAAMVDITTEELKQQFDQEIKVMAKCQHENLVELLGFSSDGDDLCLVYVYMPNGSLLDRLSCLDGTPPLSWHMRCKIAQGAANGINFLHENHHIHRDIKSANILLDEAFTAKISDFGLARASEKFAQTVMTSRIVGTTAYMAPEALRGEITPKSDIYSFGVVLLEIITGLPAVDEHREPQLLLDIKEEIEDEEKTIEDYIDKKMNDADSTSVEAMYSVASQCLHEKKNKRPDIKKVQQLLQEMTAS
Chain of Glycogen synthase kinase-3 alpha (P49840 whole entry): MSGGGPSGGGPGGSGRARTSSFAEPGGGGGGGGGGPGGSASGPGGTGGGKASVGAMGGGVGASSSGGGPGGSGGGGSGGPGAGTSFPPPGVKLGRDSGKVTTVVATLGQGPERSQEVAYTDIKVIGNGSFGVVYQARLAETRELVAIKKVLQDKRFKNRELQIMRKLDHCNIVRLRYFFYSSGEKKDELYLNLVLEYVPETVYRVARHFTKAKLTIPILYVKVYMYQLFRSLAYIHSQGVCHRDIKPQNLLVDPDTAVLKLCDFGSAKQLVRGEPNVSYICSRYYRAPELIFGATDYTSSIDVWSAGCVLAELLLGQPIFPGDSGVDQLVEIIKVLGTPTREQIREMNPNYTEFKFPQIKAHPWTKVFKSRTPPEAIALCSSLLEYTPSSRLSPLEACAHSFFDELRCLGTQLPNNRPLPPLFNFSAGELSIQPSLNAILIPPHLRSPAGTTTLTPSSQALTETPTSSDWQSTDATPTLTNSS
Chain of Protein disulfide-isomerase (P07237 whole entry): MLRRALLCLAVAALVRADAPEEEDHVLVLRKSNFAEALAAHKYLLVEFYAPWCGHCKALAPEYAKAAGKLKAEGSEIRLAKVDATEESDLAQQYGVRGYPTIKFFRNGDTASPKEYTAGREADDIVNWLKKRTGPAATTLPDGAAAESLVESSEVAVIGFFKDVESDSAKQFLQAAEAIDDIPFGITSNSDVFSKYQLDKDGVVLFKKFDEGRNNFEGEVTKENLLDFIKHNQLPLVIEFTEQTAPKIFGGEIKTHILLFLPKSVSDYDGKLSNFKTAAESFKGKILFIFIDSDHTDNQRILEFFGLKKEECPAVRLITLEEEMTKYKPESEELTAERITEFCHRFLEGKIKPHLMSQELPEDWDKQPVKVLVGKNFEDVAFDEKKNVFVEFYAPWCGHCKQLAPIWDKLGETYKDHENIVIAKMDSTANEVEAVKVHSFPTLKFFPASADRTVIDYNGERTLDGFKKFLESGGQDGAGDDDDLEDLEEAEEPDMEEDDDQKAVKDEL
Chain of Cyclin-dependent kinase 5/CDK5 activator 1 (Q00535 whole entry): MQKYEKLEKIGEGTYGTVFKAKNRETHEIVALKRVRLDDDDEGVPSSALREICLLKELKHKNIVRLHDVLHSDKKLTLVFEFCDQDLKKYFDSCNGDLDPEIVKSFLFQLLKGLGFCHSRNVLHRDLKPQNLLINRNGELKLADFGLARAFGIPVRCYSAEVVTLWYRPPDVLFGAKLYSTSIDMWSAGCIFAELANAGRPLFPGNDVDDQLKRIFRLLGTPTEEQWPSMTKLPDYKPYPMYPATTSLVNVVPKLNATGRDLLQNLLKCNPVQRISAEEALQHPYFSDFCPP
Chain of Cyclin-dependent kinase 5/CDK5 activator 1 (Q15078 whole entry, further chain): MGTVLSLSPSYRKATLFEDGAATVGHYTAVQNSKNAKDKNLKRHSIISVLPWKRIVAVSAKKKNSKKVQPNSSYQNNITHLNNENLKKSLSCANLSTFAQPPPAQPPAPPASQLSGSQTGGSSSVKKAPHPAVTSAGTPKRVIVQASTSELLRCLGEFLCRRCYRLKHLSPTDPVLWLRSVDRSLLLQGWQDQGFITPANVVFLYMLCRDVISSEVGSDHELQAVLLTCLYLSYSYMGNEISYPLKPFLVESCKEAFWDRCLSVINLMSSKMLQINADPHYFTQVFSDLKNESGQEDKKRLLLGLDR
Chain of Homeodomain-interacting protein kinase 2 (Q9H2X6 whole entry): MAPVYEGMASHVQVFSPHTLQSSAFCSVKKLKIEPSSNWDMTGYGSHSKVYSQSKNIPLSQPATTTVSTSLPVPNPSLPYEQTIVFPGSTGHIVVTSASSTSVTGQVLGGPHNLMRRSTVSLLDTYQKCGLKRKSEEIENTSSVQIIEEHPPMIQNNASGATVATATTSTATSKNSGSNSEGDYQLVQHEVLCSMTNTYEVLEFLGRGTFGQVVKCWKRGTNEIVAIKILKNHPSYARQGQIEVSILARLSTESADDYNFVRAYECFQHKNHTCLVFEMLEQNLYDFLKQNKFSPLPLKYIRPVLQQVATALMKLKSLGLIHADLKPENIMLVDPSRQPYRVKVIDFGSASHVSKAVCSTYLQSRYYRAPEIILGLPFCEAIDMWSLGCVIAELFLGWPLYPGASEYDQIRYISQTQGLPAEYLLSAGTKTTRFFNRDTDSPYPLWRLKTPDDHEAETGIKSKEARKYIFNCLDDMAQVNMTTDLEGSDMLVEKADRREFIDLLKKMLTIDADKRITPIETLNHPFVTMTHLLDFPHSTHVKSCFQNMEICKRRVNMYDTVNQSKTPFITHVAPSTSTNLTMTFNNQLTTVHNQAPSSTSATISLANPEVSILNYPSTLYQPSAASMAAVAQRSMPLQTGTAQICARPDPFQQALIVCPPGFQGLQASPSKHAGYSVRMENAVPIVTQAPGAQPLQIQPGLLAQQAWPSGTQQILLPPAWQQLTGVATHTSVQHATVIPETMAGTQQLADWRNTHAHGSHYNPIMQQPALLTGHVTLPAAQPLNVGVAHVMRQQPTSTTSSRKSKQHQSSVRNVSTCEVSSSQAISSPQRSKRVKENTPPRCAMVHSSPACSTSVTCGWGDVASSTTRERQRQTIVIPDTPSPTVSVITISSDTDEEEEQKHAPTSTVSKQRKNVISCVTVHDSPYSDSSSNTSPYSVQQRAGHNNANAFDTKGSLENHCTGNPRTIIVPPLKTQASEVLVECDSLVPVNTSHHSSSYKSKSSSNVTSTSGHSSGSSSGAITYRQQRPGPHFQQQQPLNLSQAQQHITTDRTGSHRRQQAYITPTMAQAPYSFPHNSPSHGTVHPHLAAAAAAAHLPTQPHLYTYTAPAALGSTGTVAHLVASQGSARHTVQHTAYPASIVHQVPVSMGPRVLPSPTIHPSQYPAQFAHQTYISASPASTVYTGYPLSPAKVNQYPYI
Chain of Testis-specific serine/threonine-protein kinase 2 (Q96PF2 whole entry): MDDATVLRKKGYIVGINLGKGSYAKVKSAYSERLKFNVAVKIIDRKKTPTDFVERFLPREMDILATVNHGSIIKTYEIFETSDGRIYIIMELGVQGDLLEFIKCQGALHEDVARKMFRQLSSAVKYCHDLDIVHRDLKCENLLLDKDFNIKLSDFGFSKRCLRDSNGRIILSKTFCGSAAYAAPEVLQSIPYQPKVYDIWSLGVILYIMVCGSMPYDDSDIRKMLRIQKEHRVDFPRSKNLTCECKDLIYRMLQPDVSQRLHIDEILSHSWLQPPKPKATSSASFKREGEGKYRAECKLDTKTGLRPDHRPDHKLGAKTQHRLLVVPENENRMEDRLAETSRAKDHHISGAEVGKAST
Chain of RNA-editing ligase 1, mitochondrial (P86926 whole entry): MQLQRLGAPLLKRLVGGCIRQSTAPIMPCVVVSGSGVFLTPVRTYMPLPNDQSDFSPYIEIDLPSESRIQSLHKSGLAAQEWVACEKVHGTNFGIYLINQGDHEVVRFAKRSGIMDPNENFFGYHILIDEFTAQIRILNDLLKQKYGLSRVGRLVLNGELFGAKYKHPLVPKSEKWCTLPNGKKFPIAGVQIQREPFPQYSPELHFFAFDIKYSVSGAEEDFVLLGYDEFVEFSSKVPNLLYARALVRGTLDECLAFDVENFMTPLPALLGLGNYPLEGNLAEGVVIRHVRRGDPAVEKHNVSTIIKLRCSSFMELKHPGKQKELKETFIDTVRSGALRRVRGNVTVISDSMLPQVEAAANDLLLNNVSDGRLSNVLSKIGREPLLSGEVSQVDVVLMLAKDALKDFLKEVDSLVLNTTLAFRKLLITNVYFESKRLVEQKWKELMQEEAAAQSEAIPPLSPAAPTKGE

Compound: COc1ccc(C[C@H]2CN3C(=NC[C@@H]3Cc3ccccc3)N2CCNC(=O)CCC2CCCCC2)cc1
AC50 [1]: 7.94 µM (active)
IC50 [2]: > 20 µM (inactive)
AC50 (cells [3]): 13.4 µM (active)
AC50 (cells [4]): 8.94 µM (active)
AC50 (INS1): 5.74 µM (active)
EC50 [5]: 22 µM (active)
IC50 [6]: > 96.6 µM (inactive)
AC50 [7]: 11.2 µM (active)

Compound: Cc1ccc(Sc2c([N+](=O)[O-])cnc3ccccc23)cc1
AC50 [8]: 22.9 µM (active)

Compound: Cc1ccc(-c2cc3nc(-c4ccccc4)cc(N4CCC5(CC4)OCCO5)n3n2)cc1
IC50 [19]: 5.68 µM (active)
IC50 [20]: > 49.7 µM (inactive)
IC50 (CHO-K1): > 66.2 µM (inactive)
IC50 (Orexin receptor type 2 [21]): 24.9 µM (inactive)
IC50 (Orexin receptor type 2 [22]): > 50 µM (inactive)
IC50 [23]: 17.4 µM (inactive)

Compound: CNC(=O)c1cc(Oc2ccc(NC(=O)Nc3ccc(Cl)c(C(F)(F)F)c3)cc2)ccn1 [SORAFENIB]
Ki [25]: > 1.58 µM (inactive)

Compound: C[C@H]1CN([C@@H](C)CO)C(=O)Cc2cc(NC(=O)Nc3ccccc3)ccc2O[C@H]1CN(C)Cc1ccccc1
IC50 [26]: 21.4 µM (inactive)
AC50 [27]: 10.3 µM (active)
IC50 [28]: 27.8 µM (inactive)
IC50 [29]: 25.1 µM (inactive)

Now from value to molecule:

Ki [9]: > 5.01 µM (inactive)
Ki [10]: 0.158 µM (active)
Ki [11]: 0.251 µM (active)
Ki [12]: 0.2 µM (active)
Ki [13]: 0.0398 µM (active)
Ki [14]: 0.0398 µM (active)
Ki [15]: 0.00794 µM (active)
Compound: CN(Cc1ccccc1)c1cc(-c2c[nH]c3ncccc23)cc(Cl)n1

AC50 [16]: 0.351 µM (active)
IC50 [2]: > 20 µM (inactive)
AC50 [17]: 0.984 µM (active)
AC50 [18]: 28.4 µM (active)
Compound: O/N=C/c1cn(-c2ccccc2)nc1-c1ccc2c(c1)OCCO2

IC50 [24]: > 100 µM (inactive)
Compound: CC(=O)c1ccc(C(=O)Nc2ccc3[nH]c(C)nc3c2)s1
